Test results reported in US20250281491A1, “DUAL FUNCTIONING IMMUNE MODULATING COMPOUNDS, FORMULATIONS, AND USES THEREOF” (THE REGENTS OF THE UNIVERSITY OF MICHIGAN, priority 2022, published 2025).

Experiments:
[1] = tested on: M2 polarized RAW264.7 cells; assay: M1 macrophage ratio (CD80 and CD86, flow cytometry) from M2 polarized RAW264.7 cells; format: cell-based; conditions: 2 days; for M1 macrophage percentage among all the macrophages: 10 μM, FIG. 9
Experimental: FIG. 10 is a graph of M1 macrophage ratio as determined by measuring CD80 and CD86 as markers for M1 macrophage by flow cytometry from M2 polarized RAW264.7 cells incubated with different concentrations of DMA01-166 for 2 days.
Macrophage polarization effects of the dual functioning NCEs were further tested by first inducing RAW264.7 cells to M2 macrophage, and then treating with different drugs to test the M1 macrophage percentage among all the macrophages.

[2] = tested on: M2 polarized RAW264.7 cells; assay: TNFα secretion from M2 polarized RAW264.7 cells by ELISA (macrophage polarization); conditions: 10 μM, 2 days, vs M2 control group, FIG. 8
[3] = biological target: T1, PI3K β (Homo sapiens, UniProt P42338); assay: PI3K inhibition assay (BPS Bioscience kit, ADP-Glo luminescence); format: biochemical; conditions: for IC50: purified enzyme
T1 construct: purchased BPS Bioscience (San Diego, CA, USA)
T1 sequence (P42338 whole entry): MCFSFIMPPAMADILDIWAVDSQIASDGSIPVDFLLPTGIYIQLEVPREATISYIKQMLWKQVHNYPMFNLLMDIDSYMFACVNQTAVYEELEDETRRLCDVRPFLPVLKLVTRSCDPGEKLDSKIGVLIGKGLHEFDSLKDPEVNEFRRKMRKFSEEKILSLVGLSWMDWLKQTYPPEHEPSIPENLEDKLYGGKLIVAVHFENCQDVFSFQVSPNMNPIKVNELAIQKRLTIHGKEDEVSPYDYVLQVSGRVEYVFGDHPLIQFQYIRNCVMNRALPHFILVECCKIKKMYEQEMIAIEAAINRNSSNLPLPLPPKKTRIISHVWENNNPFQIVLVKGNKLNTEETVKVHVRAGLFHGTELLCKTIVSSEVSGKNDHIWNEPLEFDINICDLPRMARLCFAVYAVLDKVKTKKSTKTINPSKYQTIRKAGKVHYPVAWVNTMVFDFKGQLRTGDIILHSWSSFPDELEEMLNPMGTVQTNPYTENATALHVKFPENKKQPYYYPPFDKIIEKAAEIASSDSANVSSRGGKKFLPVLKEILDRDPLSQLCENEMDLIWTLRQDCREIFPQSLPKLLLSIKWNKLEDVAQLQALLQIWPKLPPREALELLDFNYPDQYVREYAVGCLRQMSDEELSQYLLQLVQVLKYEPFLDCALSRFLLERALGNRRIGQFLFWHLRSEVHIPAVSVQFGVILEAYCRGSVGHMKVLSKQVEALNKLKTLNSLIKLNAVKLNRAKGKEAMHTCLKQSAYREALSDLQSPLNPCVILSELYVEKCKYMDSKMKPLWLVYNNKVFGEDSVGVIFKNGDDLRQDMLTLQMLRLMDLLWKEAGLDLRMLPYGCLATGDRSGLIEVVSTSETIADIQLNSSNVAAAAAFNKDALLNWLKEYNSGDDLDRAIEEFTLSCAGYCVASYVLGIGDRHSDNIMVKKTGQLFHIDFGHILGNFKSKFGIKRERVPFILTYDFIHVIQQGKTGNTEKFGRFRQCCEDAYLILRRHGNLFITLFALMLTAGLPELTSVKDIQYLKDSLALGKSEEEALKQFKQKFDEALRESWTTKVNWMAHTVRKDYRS
T1 sequence (P27986 whole entry partner): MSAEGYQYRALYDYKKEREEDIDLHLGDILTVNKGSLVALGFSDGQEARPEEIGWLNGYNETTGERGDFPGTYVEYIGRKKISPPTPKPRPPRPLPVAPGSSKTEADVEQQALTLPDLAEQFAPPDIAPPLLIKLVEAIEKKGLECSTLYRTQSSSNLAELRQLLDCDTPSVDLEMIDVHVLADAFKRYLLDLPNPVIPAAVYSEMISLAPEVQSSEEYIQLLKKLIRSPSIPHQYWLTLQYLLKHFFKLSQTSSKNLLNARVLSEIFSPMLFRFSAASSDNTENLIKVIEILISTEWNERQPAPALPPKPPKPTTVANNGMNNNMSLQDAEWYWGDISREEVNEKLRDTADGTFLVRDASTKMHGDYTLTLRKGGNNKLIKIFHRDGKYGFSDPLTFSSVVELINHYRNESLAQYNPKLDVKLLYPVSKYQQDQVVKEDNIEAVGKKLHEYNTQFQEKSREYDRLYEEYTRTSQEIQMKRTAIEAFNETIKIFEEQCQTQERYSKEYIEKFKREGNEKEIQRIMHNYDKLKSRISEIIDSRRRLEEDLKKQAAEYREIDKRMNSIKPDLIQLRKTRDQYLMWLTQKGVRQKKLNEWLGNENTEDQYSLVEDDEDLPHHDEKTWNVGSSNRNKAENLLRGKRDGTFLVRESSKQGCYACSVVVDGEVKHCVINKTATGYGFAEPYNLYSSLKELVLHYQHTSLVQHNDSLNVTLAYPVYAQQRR
Experimental: (§1) The IC50 of compounds to inhibit different PI3K isoforms were calculated using Prism 8.
(§2) PI3Kα, PI3K β, PI3Kγ, and PI3Kδ binding assay kits were obtained from BPS Bioscience (San Diego, CA, USA). The assays were conducted according to manufacturer's protocols in 96-well microplates. Briefly, 5 μL PI3K lipid substrate was added to all wells. […] 10 μL of PI3Ka (0.5 ng/μL, PI3K β 4 ng/μL, PI3Kγ 4 ng/μL, or PI3Kδ 13 ng/μL) was added to initiate reaction. The plate was carefully shaken, and the reaction mixture was incubated at 30° C. for 40 minutes. Then 25 μL ADP-Glo reagent (Promega, Madison, WI, USA) was added to each well and the reactions were performed in darkness for 45 minutes. Finally, 50 μL of kinase detection reagent (Promega, Madison, WI, USA) was added to each well and the reactions were performed in darkness for 30 minutes. The luminescence of the reaction mixture was read on a Synergy 2 microplate reader (Biotek).

[4] = biological target: T2, PI3Kα (Homo sapiens, UniProt P42336); assay: as above; format: biochemical; conditions: for IC50: purified enzyme
T2 construct: purchased BPS Bioscience (San Diego, CA, USA)
T2 sequence (P42336 whole entry): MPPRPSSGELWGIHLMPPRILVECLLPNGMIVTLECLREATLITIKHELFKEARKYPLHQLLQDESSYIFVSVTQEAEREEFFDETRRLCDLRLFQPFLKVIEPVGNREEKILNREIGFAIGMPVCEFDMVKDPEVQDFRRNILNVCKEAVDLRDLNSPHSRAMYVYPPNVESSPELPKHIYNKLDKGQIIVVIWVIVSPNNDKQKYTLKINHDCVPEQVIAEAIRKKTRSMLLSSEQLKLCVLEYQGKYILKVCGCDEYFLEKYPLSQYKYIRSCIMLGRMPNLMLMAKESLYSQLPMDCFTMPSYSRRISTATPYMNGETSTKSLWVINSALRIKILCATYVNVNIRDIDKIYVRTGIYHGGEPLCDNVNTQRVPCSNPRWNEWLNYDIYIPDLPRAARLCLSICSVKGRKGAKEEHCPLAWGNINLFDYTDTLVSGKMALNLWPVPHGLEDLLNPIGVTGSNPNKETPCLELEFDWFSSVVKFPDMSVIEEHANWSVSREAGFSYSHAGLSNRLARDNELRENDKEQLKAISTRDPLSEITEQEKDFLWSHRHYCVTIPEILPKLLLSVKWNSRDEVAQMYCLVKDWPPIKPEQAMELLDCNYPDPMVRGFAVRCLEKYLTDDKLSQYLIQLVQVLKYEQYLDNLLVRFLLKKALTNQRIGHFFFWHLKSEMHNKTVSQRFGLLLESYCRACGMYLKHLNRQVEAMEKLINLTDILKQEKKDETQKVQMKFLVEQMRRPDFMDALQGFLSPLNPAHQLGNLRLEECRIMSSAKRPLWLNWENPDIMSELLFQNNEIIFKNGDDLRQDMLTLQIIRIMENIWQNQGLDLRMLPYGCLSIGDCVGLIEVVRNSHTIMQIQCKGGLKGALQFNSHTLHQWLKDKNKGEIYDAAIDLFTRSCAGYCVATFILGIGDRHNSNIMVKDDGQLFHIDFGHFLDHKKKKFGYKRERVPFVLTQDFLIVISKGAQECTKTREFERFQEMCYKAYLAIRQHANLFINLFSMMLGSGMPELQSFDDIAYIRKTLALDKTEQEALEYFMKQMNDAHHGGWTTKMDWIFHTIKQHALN
T2 sequence (P27986 whole entry partner): as the sequence (P27986 whole entry partner) above
Experimental: as §1, §2

[5] = biological target: T3, PI3Kγ (Homo sapiens, UniProt P48736); assay: as above; format: biochemical; conditions: for IC50: purified enzyme
T3 construct: purchased BPS Bioscience (San Diego, CA, USA)
T3 sequence (P48736 whole entry): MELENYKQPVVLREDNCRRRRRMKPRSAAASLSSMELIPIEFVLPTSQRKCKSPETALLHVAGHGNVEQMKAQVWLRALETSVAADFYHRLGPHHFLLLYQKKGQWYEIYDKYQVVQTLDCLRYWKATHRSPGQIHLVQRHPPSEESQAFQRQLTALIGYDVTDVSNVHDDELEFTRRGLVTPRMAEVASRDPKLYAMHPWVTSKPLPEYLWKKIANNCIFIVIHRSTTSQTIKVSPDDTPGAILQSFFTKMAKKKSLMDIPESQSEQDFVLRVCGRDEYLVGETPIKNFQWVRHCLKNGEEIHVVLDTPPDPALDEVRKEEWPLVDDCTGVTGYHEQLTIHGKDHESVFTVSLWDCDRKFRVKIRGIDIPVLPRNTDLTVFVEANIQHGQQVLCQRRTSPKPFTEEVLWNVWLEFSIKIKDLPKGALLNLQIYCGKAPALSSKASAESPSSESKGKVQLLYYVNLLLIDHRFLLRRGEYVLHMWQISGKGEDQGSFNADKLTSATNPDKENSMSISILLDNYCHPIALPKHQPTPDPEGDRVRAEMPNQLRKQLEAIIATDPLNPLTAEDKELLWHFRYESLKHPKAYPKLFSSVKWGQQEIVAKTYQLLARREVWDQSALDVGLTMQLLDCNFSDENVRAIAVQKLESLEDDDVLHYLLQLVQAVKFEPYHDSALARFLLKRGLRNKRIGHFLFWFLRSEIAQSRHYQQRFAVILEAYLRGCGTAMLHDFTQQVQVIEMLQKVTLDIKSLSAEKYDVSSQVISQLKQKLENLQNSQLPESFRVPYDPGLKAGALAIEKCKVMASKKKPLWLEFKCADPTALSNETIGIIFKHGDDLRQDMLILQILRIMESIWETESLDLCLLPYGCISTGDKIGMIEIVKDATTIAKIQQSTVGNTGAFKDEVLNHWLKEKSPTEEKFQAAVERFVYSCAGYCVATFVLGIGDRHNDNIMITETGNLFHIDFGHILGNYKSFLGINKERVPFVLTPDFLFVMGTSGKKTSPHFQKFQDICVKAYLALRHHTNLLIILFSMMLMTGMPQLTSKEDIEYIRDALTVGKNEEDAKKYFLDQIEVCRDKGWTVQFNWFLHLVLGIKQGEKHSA
Experimental: as §1, §2

[6] = biological target: T4, PI3Kδ (Homo sapiens, UniProt O00329); assay: as above; format: biochemical; conditions: for IC50: purified enzyme
T4 construct: purchased BPS Bioscience (San Diego, CA, USA)
T4 sequence (O00329 whole entry): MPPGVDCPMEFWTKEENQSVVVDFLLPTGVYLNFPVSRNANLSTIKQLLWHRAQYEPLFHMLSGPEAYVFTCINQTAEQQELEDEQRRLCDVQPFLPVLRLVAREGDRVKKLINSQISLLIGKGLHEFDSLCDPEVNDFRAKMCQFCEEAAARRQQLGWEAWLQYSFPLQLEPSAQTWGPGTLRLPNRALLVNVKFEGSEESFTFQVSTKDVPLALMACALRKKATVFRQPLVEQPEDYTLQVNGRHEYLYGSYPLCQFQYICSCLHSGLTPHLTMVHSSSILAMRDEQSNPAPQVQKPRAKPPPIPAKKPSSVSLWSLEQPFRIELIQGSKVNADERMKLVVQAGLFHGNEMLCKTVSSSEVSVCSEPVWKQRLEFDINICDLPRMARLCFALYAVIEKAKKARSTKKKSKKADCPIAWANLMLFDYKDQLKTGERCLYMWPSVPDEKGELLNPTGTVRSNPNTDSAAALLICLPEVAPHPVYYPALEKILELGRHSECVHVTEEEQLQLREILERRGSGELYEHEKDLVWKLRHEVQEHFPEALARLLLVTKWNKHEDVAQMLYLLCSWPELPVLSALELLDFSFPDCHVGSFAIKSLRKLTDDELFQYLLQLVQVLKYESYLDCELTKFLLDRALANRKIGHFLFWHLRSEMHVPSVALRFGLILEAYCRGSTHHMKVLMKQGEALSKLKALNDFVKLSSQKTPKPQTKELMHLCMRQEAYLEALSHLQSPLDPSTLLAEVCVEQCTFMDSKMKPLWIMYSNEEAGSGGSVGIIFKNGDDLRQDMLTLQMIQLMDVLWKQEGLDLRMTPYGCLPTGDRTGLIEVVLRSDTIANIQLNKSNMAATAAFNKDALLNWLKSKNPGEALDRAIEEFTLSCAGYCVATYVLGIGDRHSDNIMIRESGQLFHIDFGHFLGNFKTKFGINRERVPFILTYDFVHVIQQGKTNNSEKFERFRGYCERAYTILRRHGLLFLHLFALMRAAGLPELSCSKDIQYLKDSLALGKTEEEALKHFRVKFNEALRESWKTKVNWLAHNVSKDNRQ
T4 sequence (P27986 whole entry partner): as the sequence (P27986 whole entry partner) above
Experimental: as §1, §2

[7] = tested on: STING; assay: STING activation in THP-1 ISG Blue cells (QUANTI-Blue, OD 655); format: cell-based; conditions: 24 hours, FIG. 1
Experimental: FIG. 1 is a graph of STING activation for different concentrations of compounds as determined by incubating with THP-1 ISG Blue cells for 24 hours, mixing with ‘QUANTI-Blue’ solution and measuring OD 655.
FIG. 2 is a graph of STING activation for different concentrations of DMA01-166 as determined by incubating with THP-1 ISG Blue cells for 24 hours, mixing with ‘QUANTI-Blue’ solution and measuring OD 655.
FIG. 3 is a graph of STING activation for different concentrations of MSA-2 as determined by incubating with THP-1 ISG Blue cells for 24 hours, mixing with ‘QUANTI-Blue’ solution and measuring OD 655.
THP-1 ISG Blue cells analysis is a standard assay to test STING activation in vitro. […] Different concentrations of DMA01-166 (FIG. 2) and MSA-2 (FIG. 3) were incubated with THP-1 ISG Blue cells for 24 hours.

[8] = tested on: mouse bone marrow derived dendritic cells (BMDCs); assay: BMDC activation, upregulation of CD80 and CD86 by flow cytometry; format: cell-based; conditions: 24 hours
Experimental: FIG. 5 are graphs of BMDC activation as measured based on the upregulation of CD80 and CD86 by flow cytometry for different concentrations of DMA01-166 incubated with mouse bone marrow derived dendritic cells (BMDCs) for 24 hours.
STING activation induces BMDC activation. To test the ability of DMA01-166 in activating BMDC, BMDCs activation was measured based on the upregulation of CD80 and CD86 by flow cytometry. […] Different concentrations of DMA01-166 were incubated with BMDC cells for 24 hours.

[9] = tested on: mouse bone marrow derived dendritic cells (BMDCs); assay: mIFNβ secretion from BMDCs by ELISA; format: cell-based; conditions: 24 hours; for mIFNβ secretion: BMDC supernatants, 10 μM, FIG. 6
Experimental: FIG. 7 a graph of mIFNβ concentrations as measured by ELISA from the supernatants of mouse bone marrow derived dendritic cells (BMDCs) incubated with different concentrations of DMA01-166 for 24 hours.
STING activation in BMDC results in mIFNβ secretion. […] Different concentrations of DMA01-166 (FIG. 7) were incubated with BMDC cells for 24 hours.

[10] = tested on: KPC transgenic pancreatic cancer model; assay: In vivo efficacy on KPC transgenic pancreatic cancer model; conditions: FIG. 13
Experimental: FIG. 13 is a graph of the in vivo efficacy on KPC transgenic pancreatic cancer model of an exemplary albumin nanoformulations of: DMA01-166 (D166) and DMA01-166 plus PD-1 antibody (D166+PD-1) with and without paclitaxel (Nano-P).
The in vivo efficacy of DMA01-166 and its albumin nanoformulation was tested on KPC transgenic model.

Compound | M1 macrophage percentage among all the macrophages [1] | Macrophage polarization (TNFα secretion) [2] | Inhibition of PI3K β (in words) [3] | IC50 [3] [nM] | Inhibition of PI3Kα (in words) [4] | IC50 [4] [nM] | IC50 [5] [nM] | IC50 [6] [nM] | STING activation (interferon signal) [7] | BMDC activation at different concentrations ([8]; FIG. 5) | mIFNβ secretion [9] | mIFNβ secretion at different concentrations ([9]; BMDC, FIG. 7) | Macrophage polarization (M1 ratio) at different concentrations ([1]; FIG. 10) | Median survival [10] [days] | Inhibition of PI3Kγ (in words) [5] | Inhibition of PI3Kδ (in words) [6] | BMDC activation (upregulation of CD80 and CD86) ([8]; 10 μM, FIG. 4)
CCCCC/C=C/C/C=C\CCCCCCCC(=O)OCCn1cc(-c2cccc3cc([C@@H](C)NC(=O)c4c(N)nn5cccnc45)n(-c4ccccc4)c(=O)c23)nn1 [DMA01-170, 2-(4-(3-((R)-1-(2-aminopyrazolo[1,5-a]pyrimidine-3-carboxamido)ethyl)-1-oxo-2-phenyl-1,2-dihydroisoquinolin-8-yl)-1H-1,2,3-triazol-1-yl)ethyl (9Z,12E)-octadeca-9,12-dienoate] | mild effects on increasing M1 percentage | showed macrophage polarization effects compared to M2 control group | – | – | – | – | – | – | – | – | – | – | – | – | – | – | –
COc1cc2cc(C(=O)CCC(=O)OCCn3cc(-c4cccc5cc([C@@H](C)NC(=O)c6c(N)nn7cccnc67)n(-c6ccccc6)c(=O)c45)nn3)sc2cc1OC [DMA01-166, (R)-2-(4-(3-(1-(2-aminopyrazolo[1,5-a]pyrimidine-3-carboxamido)ethyl)-1-oxo-2-phenyl-1,2-dihydroisoquinolin-8-yl)-1H-1,2,3-triazol-1-yl)ethyl 4-(5,6-dimethoxybenzo[b]thiophen-2-yl)-4-oxobutanoate] | higher percentage of M1 macrophage compared to IPI-549, cGAMP, ADU and MSA-2 | – | no effect | > 10000 | no effect | > 10000 | 349 | 1250 | enhanced interferon signal compared to control and cGAMP group | dose independent BMDC activation effect | higher mIFNβ secretion compared to MSA-2 | dose independent BMDC activation effect | dose independent macrophage polarization effect | 157.5 | – | – | –
CCOC(=O)Cn1cc(-c2cccc3cc([C@H](C)NC(=O)c4c(N)nn5cccnc45)n(-c4ccccc4)c(=O)c23)nn1 [DMA01-132] | – | – | – | 374 | – | 372 | 0.845 | 0.381 | – | – | – | – | – | – | inhibited both PI3Kγ and PI3Kδ | inhibited both PI3Kγ and PI3Kδ | –
C[C@H](NC(=O)c1c(N)nn2cccnc12)c1cc2cccc(-c3cn(CC(=O)O)nn3)c2c(=O)n1-c1ccccc1 [DMA01-143, (S)-2-(4-(3-(1-(2-aminopyrazolo[1,5-a]pyrimidine-3-carboxamido)ethyl)-1-oxo-2-phenyl-1,2-dihydroisoquinolin-8-yl)-1H-1,2,3-triazol-1-yl) acetic acid] | – | – | – | 312 | – | 409 | 5.34 | 1.36 | – | – | – | – | – | – | inhibited both PI3Kγ and PI3Kδ | inhibited both PI3Kγ and PI3Kδ | –
C[C@H](NC(=O)c1c(N)nn2cccnc12)c1cc2cccc(-c3cn(CCO)nn3)c2c(=O)n1-c1ccccc1 [DMA01-148] | – | – | – | 548 | – | 1050 | 0.864 | 15.4 | – | – | – | – | – | – | selectively inhibited PI3Kγ, with similar efficacy compared to IPI-549 | – | –
C[C@@H](NC(=O)c1c(N)nn2cccnc12)c1cc2cccc(-c3cn(CCOC(=O)[C@H](N)Cc4cn(C)c5ccccc45)nn3)c2c(=O)n1-c1ccccc1 [DMA01-173, 2-(4-(3-((R)-1-(2-aminopyrazolo[1,5-a]pyrimidine-3-carboxamido)ethyl)-1-oxo-2-phenyl-1,2-dihydroisoquinolin-8-yl)-1H-1,2,3-triazol-1-yl)ethyl 1-methyl-D-tryptophanate] | mild effects on increasing M1 percentage | showed macrophage polarization effects compared to M2 control group | – | – | – | – | – | – | did not stimulate STING activation | – | cannot enhance mIFNβ secretion | – | – | – | – | – | did not stimulate DC activation
